This passage reports IC50 results from patent publication US20240424109A1, “GLUCOSE-[…] CONJUGATES COMPRISING A TETRA-VALENT SUGAR CLUSTER FOR TREATMENT OF DIABETES” (Merck Sharp & Dohme LLC, priority 2021, published 2024).

Structures are written as SMILES.

Assay [1] deals with T1, human insulin receptor type B (IR(B)) (Homo sapiens, UniProt P06213).
T1 construct: expressed in transfected cells; host or cells: CHO cells (G418 selection)
Put plainly: Insulin receptor competition binding assay (125[I]-insulin; whole cell or SPA). Here is the method: Method D: IR binding assay was run in a scintillation proximity assay (SPA) in 384-well format using cell membranes prepared from CHO cells overexpressing human IR(B) grown in F12 media containing 10% FBS and antibiotics (G418, Penicillin/[…]).
(§1) The in vitro biological activities towards insulin receptor (IR) were measured by either ligand competition assays or functional phosphorylation assays, as described above, labeled as following: Method A: IR phosphorylation assay based on 96-well; Method B: IR phosphorylation assay based on 384-well with automated liquid dispense; Method C: cell-based IR binding assay; Method D: SPA IR binding assay method E; Method E: MRC1 assay was performed in a 96-well plate; Method F: MRC1 assay was performed in a 384-well plate.

In assay [2] the target is T2, Human macrophage mannose receptor 1 (MRC1) (Homo sapiens, UniProt P22897).
T2 sequence (P22897 19-1456): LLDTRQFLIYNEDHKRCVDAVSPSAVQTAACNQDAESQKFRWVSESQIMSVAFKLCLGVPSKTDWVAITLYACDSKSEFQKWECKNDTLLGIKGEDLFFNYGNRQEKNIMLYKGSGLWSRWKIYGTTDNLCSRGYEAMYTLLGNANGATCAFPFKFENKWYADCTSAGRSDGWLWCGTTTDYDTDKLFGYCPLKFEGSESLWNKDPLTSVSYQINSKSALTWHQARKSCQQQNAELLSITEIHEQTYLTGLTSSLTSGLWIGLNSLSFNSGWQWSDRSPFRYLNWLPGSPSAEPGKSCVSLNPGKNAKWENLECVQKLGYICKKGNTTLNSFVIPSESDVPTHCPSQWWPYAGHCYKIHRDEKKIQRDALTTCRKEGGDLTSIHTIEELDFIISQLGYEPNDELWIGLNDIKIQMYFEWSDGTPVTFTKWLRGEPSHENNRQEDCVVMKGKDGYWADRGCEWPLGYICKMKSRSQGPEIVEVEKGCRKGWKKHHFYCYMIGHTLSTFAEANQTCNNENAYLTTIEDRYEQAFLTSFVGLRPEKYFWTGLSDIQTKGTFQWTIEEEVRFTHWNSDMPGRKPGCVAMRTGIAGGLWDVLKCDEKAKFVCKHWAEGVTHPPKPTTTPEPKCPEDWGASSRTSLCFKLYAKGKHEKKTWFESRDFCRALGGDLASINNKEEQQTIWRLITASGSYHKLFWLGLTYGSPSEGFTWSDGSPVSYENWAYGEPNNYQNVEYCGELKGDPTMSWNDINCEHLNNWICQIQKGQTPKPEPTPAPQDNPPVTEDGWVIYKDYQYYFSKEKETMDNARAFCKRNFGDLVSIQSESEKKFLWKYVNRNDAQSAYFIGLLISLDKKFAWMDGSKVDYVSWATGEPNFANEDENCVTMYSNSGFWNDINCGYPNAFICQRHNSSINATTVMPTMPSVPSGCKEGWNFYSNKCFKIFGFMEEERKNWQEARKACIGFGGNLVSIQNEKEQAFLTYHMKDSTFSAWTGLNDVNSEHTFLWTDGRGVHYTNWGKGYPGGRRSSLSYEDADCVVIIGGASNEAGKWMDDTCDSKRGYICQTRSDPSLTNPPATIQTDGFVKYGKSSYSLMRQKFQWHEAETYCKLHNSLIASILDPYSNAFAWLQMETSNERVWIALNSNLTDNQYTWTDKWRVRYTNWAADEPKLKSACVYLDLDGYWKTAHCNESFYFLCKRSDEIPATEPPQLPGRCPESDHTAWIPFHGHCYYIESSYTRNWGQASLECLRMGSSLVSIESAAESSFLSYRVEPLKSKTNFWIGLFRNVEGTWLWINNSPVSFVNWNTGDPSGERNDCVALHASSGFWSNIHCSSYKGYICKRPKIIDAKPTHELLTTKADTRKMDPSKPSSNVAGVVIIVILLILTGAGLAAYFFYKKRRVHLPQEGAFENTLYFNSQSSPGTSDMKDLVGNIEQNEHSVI
Put plainly: Human macrophage mannose receptor 1 (MRC1) competition binding assay. The following applies: competition against Eu-labeled mannosylated-BSA. The procedure: The competition binding assay for MRC1 utilized a ligand, mannosylated-BSA labeled with the DELFIA Eu-N1-ITC reagent (labeling kit for europium labeling of proteins and polypetides for use in dissociation-enhanced time-resolved fluorometric assay), as reported in the literature. Assay was performed either in a 96-well plate with 100 μL well volume (Method E) or in a 384-well plate with 25 μL well volume (Method F). […] The antibody was incubated in the plate for 1 h at rt with shaking. The plate was washed with wash buffer 3-5 times followed by addition of MRC1 (2 ng/μl final concentration) in PBS containing 1% stabilizer BSA. The plate was incubated at rt with gentle shaking for 1 h. The plate was washed three times with wash buffer. […]
as §1

T1 sequence (P06213 28-758 limits assumed): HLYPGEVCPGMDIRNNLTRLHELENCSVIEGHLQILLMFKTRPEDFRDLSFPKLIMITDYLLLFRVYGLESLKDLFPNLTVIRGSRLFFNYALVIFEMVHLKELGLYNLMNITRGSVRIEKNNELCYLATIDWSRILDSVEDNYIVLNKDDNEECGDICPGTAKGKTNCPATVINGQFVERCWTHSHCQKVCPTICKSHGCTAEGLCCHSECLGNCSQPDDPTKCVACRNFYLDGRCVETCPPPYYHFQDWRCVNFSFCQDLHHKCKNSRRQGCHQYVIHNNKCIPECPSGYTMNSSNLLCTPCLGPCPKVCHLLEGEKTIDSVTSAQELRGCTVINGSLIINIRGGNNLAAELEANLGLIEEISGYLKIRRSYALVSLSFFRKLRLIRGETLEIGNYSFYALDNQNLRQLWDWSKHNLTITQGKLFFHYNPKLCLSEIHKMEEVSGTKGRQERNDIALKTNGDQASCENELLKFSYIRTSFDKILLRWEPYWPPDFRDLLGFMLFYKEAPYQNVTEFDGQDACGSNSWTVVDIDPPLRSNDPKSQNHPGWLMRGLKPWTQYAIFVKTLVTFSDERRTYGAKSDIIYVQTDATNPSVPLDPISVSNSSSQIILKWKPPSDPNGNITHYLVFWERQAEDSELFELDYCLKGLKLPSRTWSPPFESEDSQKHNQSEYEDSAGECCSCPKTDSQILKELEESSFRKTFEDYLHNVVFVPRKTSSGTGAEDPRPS
T1 sequence (P06213 763-1382 limits assumed): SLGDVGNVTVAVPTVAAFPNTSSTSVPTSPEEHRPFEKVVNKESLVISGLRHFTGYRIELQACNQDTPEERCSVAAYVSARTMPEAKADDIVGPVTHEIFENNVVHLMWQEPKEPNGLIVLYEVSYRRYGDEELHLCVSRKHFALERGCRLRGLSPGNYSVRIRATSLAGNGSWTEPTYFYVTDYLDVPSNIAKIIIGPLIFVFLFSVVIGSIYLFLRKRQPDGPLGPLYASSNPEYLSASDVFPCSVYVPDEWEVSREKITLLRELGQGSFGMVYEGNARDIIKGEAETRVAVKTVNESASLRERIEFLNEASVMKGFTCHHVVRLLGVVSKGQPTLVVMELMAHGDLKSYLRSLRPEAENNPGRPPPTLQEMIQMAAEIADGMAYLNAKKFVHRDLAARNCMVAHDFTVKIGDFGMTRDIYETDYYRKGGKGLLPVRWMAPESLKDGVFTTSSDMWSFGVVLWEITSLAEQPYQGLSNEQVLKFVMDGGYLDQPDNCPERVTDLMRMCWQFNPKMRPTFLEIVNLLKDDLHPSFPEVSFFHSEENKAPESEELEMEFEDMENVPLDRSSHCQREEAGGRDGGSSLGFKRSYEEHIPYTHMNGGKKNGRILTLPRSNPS

As to `CC[C@H](C)[C@H](NC(=O)CN)C(=O)N[C@H](C(=O)N[C@@H](CCC(=O)O)C(=O)N[C@@H](CCC(N)=O)C(=O)N[C@H]1CSSC[C@@H]2NC(=O)[C@H]([C@@H](C)CC)NC(=O)[C@H](CO)NC(=O)[C@H]([C@@H](C)O)NC(=O)[C@H](CSSC[C@H](NC(=O)[C@H](CC(C)C)NC(=O)[C@H](Cc3c[nH]cn3)NC(=O)[C@H](CCC(N)=O)NC(=O)[C@H](CC(N)=O)NC(=O)[C@@H](NC(=O)[C@H](Cc3ccccc3)NC(=O)CCCCC(=O)N(CC(=O)N(CCO[C@H]3O[C@H](CO)[C@@H](O)[C@H](O)[C@@H]3O)CCO[C@H]3O[C@H](CO)[C@@H](O)[C@H](O)[C@@H]3O)CC(=O)N(CCO[C@H]3O[C@H](CO)[C@@H](O)[C@H](O)[C@@H]3O)CCO[C@H]3O[C@H](CO)[C@@H](O)[C@H](O)[C@@H]3O)C(C)C)C(=O)NCC(=O)N[C@@H](CO)C(=O)N[C@@H](Cc3c[nH]cn3)C(=O)N[C@@H](CC(C)C)C(=O)N[C@@H](C(C)C)C(=O)N[C@@H](CCC(=O)O)C(=O)N[C@@H](C)C(=O)N[C@@H](CC(C)C)C(=O)N[C@@H](Cc3ccc(O)cc3)C(=O)N[C@@H](CC(C)C)C(=O)N[C@@H](C(C)C)C(=O)N[C@H](C(=O)NCC(=O)N[C@@H](CCC(=O)O)C(=O)N[C@@H](CCCNC(=N)N)C(=O)NCC(=O)N[C@@H](Cc3ccccc3)C(=O)N[C@@H](Cc3ccccc3)C(=O)N[C@@H](Cc3ccc(O)cc3)C(=O)N[C@H](C(=O)N3CCC[C@H]3C(=O)N[C@@H](CCCCNC(=O)CCCCC(=O)N(CC(=O)N(CCO[C@H]3O[C@H](CO)[C@@H](O)[C@H](O)[C@@H]3O)CCO[C@H]3O[C@H](CO)[C@@H](O)[C@H](O)[C@@H]3O)CC(=O)N(CCO[C@H]3O[C@H](CO)[C@@H](O)[C@H](O)[C@@H]3O)CCO[C@H]3O[C@H](CO)[C@@H](O)[C@H](O)[C@@H]3O)C(=O)N[C@H](C(=O)O)[C@@H](C)O)[C@@H](C)O)CSSC[C@@H](C(=O)N[C@@H](CC(N)=O)C(=O)O)NC(=O)[C@H](Cc3ccc(O)cc3)NC(=O)[C@H](CC(N)=O)NC(=O)[C@H](CCC(=O)O)NC(=O)[C@H](CC(C)C)NC(=O)[C@H](CCC(N)=O)NC(=O)[C@H](Cc3ccc(O)cc3)NC(=O)[C@H](CC(C)C)NC(=O)[C@H](CO)NC2=O)NC1=O)C(C)C` [IOC-31], in assay [1], the half-maximal inhibitory concentration (IC50) (usually the concentration that inhibits the measured activity by half) amounted to 0.9 nM. For `CC[C@H](C)[C@H](NC(=O)CN)C(=O)N[C@H](C(=O)N[C@@H](CCC(=O)O)C(=O)N[C@@H](CCC(N)=O)C(=O)N[C@H]1CSSC[C@@H]2NC(=O)[C@H]([C@@H](C)CC)NC(=O)[C@H](CO)NC(=O)[C@H]([C@@H](C)O)NC(=O)[C@H](CSSC[C@H](NC(=O)[C@H](CC(C)C)NC(=O)[C@H](Cc3c[nH]cn3)NC(=O)[C@H](CCC(N)=O)NC(=O)[C@H](CC(N)=O)NC(=O)[C@@H](NC(=O)[C@H](Cc3ccccc3)NC(=O)CCCCCNC(=O)CCCCC(=O)N(CC(=O)N(CCO[C@H]3O[C@H](CO)[C@@H](O)[C@H](O)[C@@H]3O)CCO[C@H]3O[C@H](CO)[C@@H](O)[C@H](O)[C@@H]3O)CC(=O)N(CCO[C@H]3O[C@H](CO)[C@@H](O)[C@H](O)[C@@H]3O)CCO[C@H]3O[C@H](CO)[C@@H](O)[C@H](O)[C@@H]3O)C(C)C)C(=O)NCC(=O)N[C@@H](CO)C(=O)N[C@@H](Cc3c[nH]cn3)C(=O)N[C@@H](CC(C)C)C(=O)N[C@@H](C(C)C)C(=O)N[C@@H](CCC(=O)O)C(=O)N[C@@H](C)C(=O)N[C@@H](CC(C)C)C(=O)N[C@@H](Cc3ccc(O)cc3)C(=O)N[C@@H](CC(C)C)C(=O)N[C@@H](C(C)C)C(=O)N[C@H](C(=O)NCC(=O)N[C@@H](CCC(=O)O)C(=O)N[C@@H](CCCNC(=N)N)C(=O)NCC(=O)N[C@@H](Cc3ccccc3)C(=O)N[C@@H](Cc3ccccc3)C(=O)N[C@@H](Cc3ccc(O)cc3)C(=O)N[C@H](C(=O)N3CCC[C@H]3C(=O)N[C@@H](CCCCNC(=O)CCCCCNC(=O)CCCCC(=O)N(CC(=O)N(CCO[C@H]3O[C@H](CO)[C@@H](O)[C@H](O)[C@@H]3O)CCO[C@H]3O[C@H](CO)[C@@H](O)[C@H](O)[C@@H]3O)CC(=O)N(CCO[C@H]3O[C@H](CO)[C@@H](O)[C@H](O)[C@@H]3O)CCO[C@H]3O[C@H](CO)[C@@H](O)[C@H](O)[C@@H]3O)C(=O)N[C@H](C(=O)O)[C@@H](C)O)[C@@H](C)O)CSSC[C@@H](C(=O)N[C@@H](CC(N)=O)C(=O)O)NC(=O)[C@H](Cc3ccc(O)cc3)NC(=O)[C@H](CC(N)=O)NC(=O)[C@H](CCC(=O)O)NC(=O)[C@H](CC(C)C)NC(=O)[C@H](CCC(N)=O)NC(=O)[C@H](Cc3ccc(O)cc3)NC(=O)[C@H](CC(C)C)NC(=O)[C@H](CO)NC2=O)NC1=O)C(C)C` [IOC-32], the IC50 in assay [2] stood at 2.58 nM.
